Assays:
αvβ6 (+) BxPC-3 tumors = assay: In vivo targeted radionuclide therapy; design: species or system mice
Description: Female nu/nu nude mice (6-8 weeks old) were purchased from Charles River Laboratories (Wilmington, MA, USA) and handled according to the UC Davis Institutional Animal Care and Use Committee. BxPC-3 cells (5×10^6) in 100 μl 1:1 GFR-Matrigel: serum-free RPMI were implanted subcutaneously into the left shoulder flank and allowed to grow for approximately 2 weeks (therapy study) and 3 weeks (0.5-1 cm in diameter, for imaging and biodistribution studies). All cells were evaluated with flow cytometry before injection to confirm integrin expression levels. Food and water were available ad libitum.
For in vivo targeted radionuclide therapy, mice were implanted subcutaneously with BxPc-3 tumor cells 14 days before start of treatment. Mice were randomly chosen and divided into four treatment groups: Control Saline (Group 1, n=5); Control Peptide DOTA-ABM-5G (Group 2, n=6); 1×74 MBq [^177Lu]Lu DOTA-ABM-5G (Group 3, n=10); and 2×37 MBq [^177Lu]Lu DOTA-ABM-5G (Group 4, n=7). Average tumor volume at the start of the treatment was 14-218 mm^3. Group 2 received 20 μg of peptide DOTA-ABM-5G per mouse as a control. Group 3 received 74 MBq on day 14 post-tumor implant (treatment day 0), and Group 4 received two doses of 37 MBq on day 14 and 21 post-tumor implant (treatment days 0 and 7), at a specific activity of 18.5 MBq/nmol. Body weights and tumor volumes were measured the day before treatment, and twice a week post-treatment throughout the study. Tumor volume (TV) was determined according to the equation TV=(π/6)*L*W*H, where L is the longest axis, W is the axis perpendicular to L and H is perpendicular to the plane of L and W. End point determination was based on the longest axis of TV exceeding 2 cm, active ulceration, or compromised health of the mouse, including >20% loss of body weight from the start of the study. Survival curves are depicted as a Kaplan-Meier plot, using start of treatment as day 0.

[1] = system: integrin αvβ6(+) BxPC-3 cells; assay: Cell binding, internalization and efflux; settings: 37° C.

CNC(=O)C(CCCCNC(=O)C(CC(=O)O)NC(=O)CCCNC(=O)CCCc1ccc(I)cc1)NC(=O)CN1CCN2CCN3CCN(CC1)CC(=O)[O][177Lu]([O]C(=O)C2)[O]C(=O)C3 (stereo not shown) [[^177Lu]Lu DOTA-ABM-5G]
median survival post-treatment (αvβ6 (+) BxPC-3 tumors; Group 3, 1×74 MBq): 82 days | median survival post-treatment (αvβ6 (+) BxPC-3 tumors; Group 4, 2×37 MBq (days 0 and 7)): 113 days | adverse events and weight loss during the study (αvβ6 (+) BxPC-3 tumors; any group, 120 days): No adverse events and weight loss | adverse reaction to treatment in blood chemistry (αvβ6 (+) BxPC-3 tumors; mouse, in vivo): no adverse reaction | bound to BxPC-3 cells (of total radioactivity) ([1]; 1 h): 29±1.4% | internalized into BxPC-3 cells (of total radioactivity) ([1]; 1 h): 21.6±0.01% | efflux from BxPC-3 cells ([1]; at 1 hour post-internalization): 5%
